In ChEMBL document CHEMBL1141795, “Aspirochlorine class compounds from Aspergillus flavus inhibit azole-resistant Candida albicans” (J Nat Prod, 2005):

What was measured:
Candida albicans = test: Antifungal activity against azole-resistant Candida albicans 99-788; format: functional, organism-based
CCRF-CEM = test: Cytotoxicity against human CEM cells after 96 hrs; format: functional, cell-based
in vitro = conditions: human
Description: Therapeutic index, IC50 for human CEM cells to IC 50 for azole-resistant Candida albicans 99-788

[1] = CEM cells (versus azole-resistant Candida albicans 99-788)

CN1C(=O)[C@]23CC4=CC=C[C@H](O)[C@H]4N2C(=O)[C@@]1(CO)SS3 [GLIOTOXIN]
IC50 (Candida albicans): 3100 nM | IC50 (CCRF-CEM): 0.15 µM

CON1C(=O)C2NC(=O)[C@@]13Oc1cc(O)c(Cl)cc1[C@@H]3SSSS2 [TETRATHIOASPIROCHLORINE]
IC50 (Candida albicans): 83 nM | IC50 (CCRF-CEM): 4.2 µM | selectivity ratio (in vitro; [1]): 50

CON1C(=O)[C@H]2NC(=O)[C@]13Oc1cc(O)c(Cl)cc1[C@@H]3SS2 [ASPIROCHLORINE]
IC50 (Candida albicans): 28 nM | IC50 (CCRF-CEM): 0.58 µM | selectivity ratio (in vitro; [1]): 20

COC1=CC(=O)C[C@@H](C)[C@]12Oc1c(Cl)c(OC)cc(OC)c1C2=O [GRISEOFULVIN]
IC50 (Candida albicans): > 28000 nM | IC50 (CCRF-CEM): 10 µM

CC(C)C[C@@H]1C(=O)N[C@@H](Cc2c[nH]c3ccccc23)C(=O)N1C
IC50 (Candida albicans): > 31000 nM | IC50 (CCRF-CEM): > 31 µM

C[C@@H]1[C@H](O)[C@@H](C)/C=C/C=C/C=C/C=C/C=C/C=C/C=C/[C@H](O[C@@H]2O[C@H](C)[C@@H](O)[C@H](N)[C@@H]2O)C[C@@H]2O[C@](O)(C[C@@H](O)C[C@@H](O)[C@H](O)CC[C@@H](O)C[C@@H](O)CC(=O)O[C@H]1C)C[C@H](O)[C@H]2C(=O)O [AMPHOTERICIN B]
IC50 (Candida albicans): 160 nM | IC50 (CCRF-CEM): 160 µM | selectivity ratio (in vitro; ccrf-cem): 1000
